In ChEMBL document CHEMBL1201862, “PubChem BioAssay data set” (2004):
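Values below derive from 48-hour exposures of cells grown in 96-well plates, with endpoints linearly interpolated between the two concentrations bracketing the appropriate inhibition level. The concentration for 50% growth inhibition is given as GI50.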 Activity calls are given as the source filed them. No stated cut-off is given here; in the data, active = GI50 up to about 1.1 µM and inactive = higher.

Columns and labels:
Assay in all cases: NCI tumour cell line growth inhibition, 48 h
[1] = tested on: HCC 2998
[2] = tested on: HCT-15
[3] = tested on: NCI-H226
[4] = tested on: NCI-H460
[5] = tested on: OVCAR-4
[6] = tested on: OVCAR-5
[7] = tested on: RPMI-8226
[8] = tested on: SF-295
[9] = tested on: SK-MEL-28
[10] = tested on: SK-MEL-2
[11] = tested on: SN12C
[12] = tested on: SNB-19
[13] = tested on: SW-620
[14] = tested on: U-251
[15] = tested on: UACC-62

Structure (SMILES)	GI50 [1]	GI50 [2] [µM]	GI50 [3]	GI50 [4]	GI50 [5]	GI50 [6]	GI50 [7]	GI50 [8]	GI50 [9]	GI50 [10]	GI50 [11]	GI50 [12]	GI50 [13]	GI50 [14]	GI50 [15]
CSC(=S)N(C)c1nc(N(C)C)s[s+]1	> 100 µM (inactive)	> 100	> 100 µM (inactive)	> 100 µM (inactive)	> 100 µM (inactive)	> 100 µM (inactive)	19.9 µM (inactive)	> 100 µM (inactive)	> 100 µM (inactive)	> 100 µM (inactive)	> 100 µM (inactive)	> 100 µM (inactive)	> 100 µM (inactive)	> 100 µM (inactive)	> 100 µM (inactive)
Cc1ccc(NCC(=O)N2CC(=O)Nc3ccccc32)cc1	> 100 µM (inactive)	> 100	> 100 µM (inactive)	> 100 µM (inactive)	> 100 µM (inactive)	> 100 µM (inactive)	> 100 µM (inactive)	> 100 µM (inactive)	> 100 µM (inactive)	> 100 µM (inactive)	> 100 µM (inactive)	> 100 µM (inactive)	> 100 µM (inactive)	> 100 µM (inactive)	> 100 µM (inactive)
Fc1nc(F)nc(-c2c3ccccc3c3n2CCS3)n1	> 100 µM (inactive)	54.8	> 100 µM (inactive)	61.4 µM (inactive)	98.9 µM (inactive)	> 100 µM (inactive)	33 µM (inactive)	53.3 µM (inactive)	> 100 µM (inactive)	44.5 µM (inactive)	> 100 µM (inactive)	> 100 µM (inactive)	> 100 µM (inactive)	29 µM (inactive)	–
Cc1cc(C)nc(NS(=O)(=O)c2ccc(Nc3c4ccc(Cl)cc4nc4c(C(=O)NCCN(C)C)cccc34)cc2)n1	> 100 µM (inactive)	> 100	> 100 µM (inactive)	> 100 µM (inactive)	> 100 µM (inactive)	> 100 µM (inactive)	> 100 µM (inactive)	> 100 µM (inactive)	> 100 µM (inactive)	–	> 100 µM (inactive)	> 100 µM (inactive)	> 100 µM (inactive)	> 100 µM (inactive)	> 100 µM (inactive)
COC1=CC(=O)C2C(C1=O)C(c1ccc(OC)c(OC)c1)[C@H]2C (some centres undefined)	> 100 µM (inactive)	18.2	> 100 µM (inactive)	> 100 µM (inactive)	16.6 µM (inactive)	> 100 µM (inactive)	14.6 µM (inactive)	> 100 µM (inactive)	20.3 µM (inactive)	> 100 µM (inactive)	–	> 100 µM (inactive)	20 µM (inactive)	> 100 µM (inactive)	> 100 µM (inactive)
CCCCN(CCCC)C(=O)C(=O)C(C(=O)C(=O)OC)c1nc2ccccc2o1 (centres undefined)	> 100 µM (inactive)	44.5	> 100 µM (inactive)	> 100 µM (inactive)	> 100 µM (inactive)	> 100 µM (inactive)	–	> 100 µM (inactive)	> 100 µM (inactive)	> 100 µM (inactive)	> 100 µM (inactive)	> 100 µM (inactive)	87.5 µM (inactive)	90.6 µM (inactive)	–
CC(=O)OCc1cc(OC(C)=O)cnc1COC(C)=O	–	> 100	> 100 µM (inactive)	> 100 µM (inactive)	> 100 µM (inactive)	> 100 µM (inactive)	–	> 100 µM (inactive)	> 100 µM (inactive)	> 100 µM (inactive)	> 100 µM (inactive)	> 100 µM (inactive)	> 100 µM (inactive)	> 100 µM (inactive)	> 100 µM (inactive)
C1=CC=C2NCCCCCCC/N=C3/C=CC=CC=C3NCCCCCCC/N=C\2C=C1	> 100 µM (inactive)	> 100	> 100 µM (inactive)	25.4 µM (inactive)	64.3 µM (inactive)	> 100 µM (inactive)	35.9 µM (inactive)	47.5 µM (inactive)	–	> 100 µM (inactive)	> 100 µM (inactive)	> 100 µM (inactive)	79.6 µM (inactive)	10 µM (inactive)	10 µM (inactive)
C/N=C(\NC(=S)N(C)C)N(C)C	> 100 µM (inactive)	> 100	48.5 µM (inactive)	> 100 µM (inactive)	> 100 µM (inactive)	> 100 µM (inactive)	> 100 µM (inactive)	> 100 µM (inactive)	> 100 µM (inactive)	> 100 µM (inactive)	> 100 µM (inactive)	> 100 µM (inactive)	> 100 µM (inactive)	> 100 µM (inactive)	> 100 µM (inactive)
Cn1c2ccccc2c(=O)c2c([N+](=O)[O-])ccc(NCCN)c21	7.98 µM (inactive)	12.9	13.7 µM (inactive)	6.92 µM (inactive)	12.2 µM (inactive)	13.8 µM (inactive)	–	12.5 µM (inactive)	15.3 µM (inactive)	15.3 µM (inactive)	5.14 µM (inactive)	14.1 µM (inactive)	4.55 µM (inactive)	12.8 µM (inactive)	14.9 µM (inactive)
CCCCCCCCCCCC[N+]12CC[N+](CCN)(CC1)CC2	35 µM (inactive)	–	63.7 µM (inactive)	29.2 µM (inactive)	> 100 µM (inactive)	17.2 µM (inactive)	28.2 µM (inactive)	51.8 µM (inactive)	> 100 µM (inactive)	> 100 µM (inactive)	76.7 µM (inactive)	20.8 µM (inactive)	> 100 µM (inactive)	34.5 µM (inactive)	56.9 µM (inactive)
O=C(O)CSc1nnc(/C=C/c2ccccc2)[nH]1	> 100 µM (inactive)	> 100	> 100 µM (inactive)	> 100 µM (inactive)	> 100 µM (inactive)	> 100 µM (inactive)	> 100 µM (inactive)	> 100 µM (inactive)	> 100 µM (inactive)	> 100 µM (inactive)	> 100 µM (inactive)	> 100 µM (inactive)	> 57.5 µM (inactive)	> 100 µM (inactive)	> 100 µM (inactive)
O=C1c2ccccc2C2(O)Nc3cc(O)ccc3C12O (centres undefined)	–	> 100	> 100 µM (inactive)	> 100 µM (inactive)	> 100 µM (inactive)	> 100 µM (inactive)	> 100 µM (inactive)	> 100 µM (inactive)	> 100 µM (inactive)	> 100 µM (inactive)	> 100 µM (inactive)	> 100 µM (inactive)	> 100 µM (inactive)	> 100 µM (inactive)	> 100 µM (inactive)
CCOc1ccc(/C=C/c2cc(OC)c(OC)c(OC)c2)cc1	1.14 µM (inactive)	0.869	2.45 µM (inactive)	1.05 µM (active)	11.7 µM (inactive)	> 100 µM (inactive)	0.601 µM (active)	0.346 µM (active)	0.83 µM (active)	1.23 µM (inactive)	4.02 µM (inactive)	4.36 µM (inactive)	0.791 µM (active)	0.867 µM (active)	0.385 µM (active)
NCCCCCS(=O)(=O)O	> 100 µM (inactive)	> 100	–	> 100 µM (inactive)	> 100 µM (inactive)	> 100 µM (inactive)	–	–	> 100 µM (inactive)	> 100 µM (inactive)	> 100 µM (inactive)	> 100 µM (inactive)	> 100 µM (inactive)	> 100 µM (inactive)	> 100 µM (inactive)
O=C1/C(=C/c2ccc(C(=O)O)cc2)CNC/C1=C\c1ccc(C(=O)O)cc1	> 100 µM (inactive)	> 100	> 100 µM (inactive)	> 100 µM (inactive)	> 100 µM (inactive)	> 100 µM (inactive)	> 100 µM (inactive)	> 100 µM (inactive)	> 100 µM (inactive)	–	> 100 µM (inactive)	–	–	> 100 µM (inactive)	> 100 µM (inactive)
CN(C)CCNC(=O)c1ccc(C(=O)NCCN(C)C)c2nc3ccccc3cc12	0.9 µM (active)	2.96	1.16 µM (inactive)	0.384 µM (active)	0.697 µM (active)	1.22 µM (inactive)	–	0.895 µM (active)	1.74 µM (inactive)	1.28 µM (inactive)	0.83 µM (active)	1.2 µM (inactive)	0.361 µM (active)	0.533 µM (active)	1.15 µM (inactive)
COc1cc(Cl)cc(O)c(=O)c1OC	63.4 µM (inactive)	25.4	25.2 µM (inactive)	24.3 µM (inactive)	25.7 µM (inactive)	> 92.5 µM (inactive)	15.8 µM (inactive)	62.4 µM (inactive)	92.7 µM (inactive)	53.2 µM (inactive)	46 µM (inactive)	56.1 µM (inactive)	–	40.1 µM (inactive)	24.4 µM (inactive)
Cc1ccc(C2CC(c3ccco3)=NN2c2ccccc2)o1 (centres undefined)	–	> 100	> 100 µM (inactive)	> 100 µM (inactive)	> 100 µM (inactive)	> 100 µM (inactive)	> 100 µM (inactive)	> 100 µM (inactive)	> 100 µM (inactive)	> 100 µM (inactive)	> 100 µM (inactive)	> 100 µM (inactive)	> 100 µM (inactive)	> 100 µM (inactive)	> 100 µM (inactive)
COC(=O)C1CC(c2ccc(Cl)cc2)=NO1 (centres undefined)	> 100 µM (inactive)	> 100	> 100 µM (inactive)	> 100 µM (inactive)	> 100 µM (inactive)	> 100 µM (inactive)	> 100 µM (inactive)	> 100 µM (inactive)	> 100 µM (inactive)	> 100 µM (inactive)	> 100 µM (inactive)	–	> 100 µM (inactive)	> 100 µM (inactive)	> 100 µM (inactive)
